Laboratory results published in patent US8911723B2, “Hybrid hydrogel scaffold compositions and methods of use” (Escape Therapeutics, Inc., priority 2010, dated 2014).
Entries after “also recorded” stand apart in the source; their conditions may differ.

Tests used:
hAMSCs in nude mice = assay: In vivo adipogenic differentiation of hydrogel-encapsulated hAMSCs injected subcutaneously; details: subcutaneous dorsal neck, 30 days post-injection
Procedure: All mouse experiments were conducted in accordance with the Guide for the Care and Use of Laboratory Animals and were approved by each Institution's respective Administrative Panel on Laboratory Animal Care. hAMSCs were encapsulated in PO, EFK8, and EFK8-PO hydrogels at a final concentration of 1×10^6 cells/ml and mixed gently in the hydrogels. PO and EFK8-PO were kept on ice to prevent premature gelation during the seeding process. Two hundred μL of each encapsulation was injected subcutaneously using 1 ml syringes into the dorsal neck area of female nude mice (8 weeks of age). Two hundred μL of PBS was used as a control. The nude mice were then allowed to recover, and then returned to their cages. After 30 days, mice were sacrificed using CO2 euthanasia and dorsal neck skin harvested immediately. […]
Specimens were frozen sectioned using either vertical or horizontal slices 5-10 μm thick, then post-fixed in 100% cold acetone at −20° C., blocked for 1 hr with goat serum and then incubated with the appropriate mouse anti-human nuclei monoclonal primary antibody (Chemicon, Billerica, Mass.) at the desired dilution (1:50 to 1:250) overnight at 4° C. Signal was detected using the Vectastain ABC Elite Mouse/Rabbit/Goat IgG detection kit (Vector Laboratories, Burlingame, Calif.) following the manufacturer's protocol. […]

hAMSCs [1] = assay: Cell surface marker expression of encapsulated hAMSCs (RT-PCR); assay type: cell-based, human; details: after 2 weeks of culture, data not shown
From the text: hAMSCs were confirmed to meet the minimal criteria for defining multipotent MSCs according to previously described methods [Dominici et al., “Minimal criteria for defining multipotent mesenchymal stromal cells. The International Society for Cellular Therapy position statement,” Cytotherapy 2006; 8:315-7.]. First, hAMSCs were plastic-adherent when maintained in standard culture conditions using tissue culture flasks. […] Third, hAMSCs were able to differentiate to osteoblasts, adipocytes and chondroblasts under standard in vitro differentiating conditions.

[2] = Rheology, temperature sweep of hydrogels (AR-G2 rheometer); assay type: physicochemical; details: for lost modulus G″ / storage modulus G′: 1% w/v in PBS
Procedure: The viscoelastic properties of 3 hydrogels were investigated with a, AR-G2 rheometer (TA Instruments, New Castle, Del.). The parameters of temperature sweep were set as follows: range 4-40° C., change rate 5° C./min, strain 2%; frequency 1 Hz. Three parameters were recorded: 1) storage modulus G′ estimates the elastic component of mechanical strength, 2) lost modulus G″ estimates the viscous component of mechanical strength, and 3) phase difference Delta indicates the elastic or viscous property of a material. Zero degree of Delta implies a purely elastic material, while a purely viscous material has a Delta of 90 degrees. This same method can be used to analyze the viscoelastic properties of any of the scaffolds/hydrogels of the invention.
To determine the mechanical properties of PO, EFK8, and EFK8-PO hydrogels, we performed rheological analyses. The viscoelastic behaviors of EFK8 (1% w/v in PBS), PO (20% w/v in PBS), and EFK8-PO (20% w/v PO plus 1% w/v EFK8, both in PBS) hydrogels are illustrated in FIG. 1. At 25° C., G′ of EFK8 hydrogel was ˜10.5 Pa and G″ was ˜6.2 Pa. […] Phase difference Delta increased from 30 degrees to 70 degrees (FIG. 1A). […] EFK8 hydrogel was very weak and less viscous both at room temperature and 37° C. […] FIG. 1C illustrates the viscoelastic behavior of EFK8-PO.

hAMSCs [3] = assay: WST-1 Cell Proliferation assay of encapsulated hAMSCs; assay type: cell-based, human; details: days 1-4 of culture
hAMSCs [4] = assay: In vitro adipogenic differentiation of encapsulated hAMSCs (Oil Red O); assay type: cell-based, human
From the text: (§1) hAMSCs were encapsulated in PO, EFK8, and EFK8-PO as above. Adipogenic or osteogenic differentiation was induced by culturing cells in adipogenic or osteogenic differentiation medium (AD-medium or OS-medium, respectively, Cell Applications, San Diego, Calif.) for 7 days or 14 days, respectively, according to our previously published method, which is hereby incorporated by reference, Zhao L et al., “TGF-beta 1 Induces Osteogenic Differentiation of Murine Bone Marrow Stromal Cells,” Tissue Eng Part A 2009, In press. Fresh induction media was added to every other day.
Red oil staining was used to confirm hAMSC adipogenic differentiation. Cells were washed with PBS and fixed with 10% formalin for 20 min. Cells were then washed twice with PBS, once with 60% isopropyl alcohol, stained with Oil Red O solution (Sigma-Aldrich) for 15 min, washed with PBS once more, and then observed by light field microscopy, Hata K et al., “A CCAAT/enhancer binding protein beta isoform, liver-enriched inhibitory protein, regulates commitment of osteoblasts and adipocytes,” Mol Cell Biol, 2005, 25(5):1971-1979, which is hereby incorporated by reference.

[5] = Cell viability of hydrogel-encapsulated hAMSCs (trypan blue); assay type: cell-based; details: human, hAMSCs encapsulated in EFK8 hydrogel, through 14 days of culture, read-out: hAMSC viability
Procedure: hAMSCs were encapsulated in PO, EFK8, or EFK8-PO and cultured in a 37° C. humidified 5% CO2 incubator for 3 hrs, 1, 3, 6, 10, or 14 days. Fifty μL of cells was then mixed with an equal volume of 1% trypan blue and observed under light microscopy. Trypsin-EDTA (0.25%) was used to separate cells when cell aggregation occurred. Viability was calculated as the percentage of living cells over total cells.

bleeding hand = assay: Hemostatic agent test on a bleeding hand; details: in vivo
Procedure: In one embodiment, the scaffolds can be used as a hemostatic agent. […] When a bleeding hand was treated with EFK8-PO, bleeding stopped at one minute. When a bleeding hand was treated with PO alone, the hand was still bleeding at 10 minutes.

hAMSCs [6] = assay: hAMSC morphology and distribution (aggregation) after encapsulation in hydrogels; assay type: cell-based, human; details: hAMSCs encapsulated in hydrogel
Procedure: Cells were encapsulated in the appropriate hydrogel by gently mixing hAMSCs with PO, EFK8, or EFK8-PO at a final concentration of 1×10^6 cells/ml. When seeding hAMSCs in PO or EFK8-PO, hydrogels were kept on ice to prevent premature gelation. Fifty μL of the aliquot of hydrogel/cell mixture was quickly transferred into a 96-well microplate. Encapsulated hAMSCs were then incubated at 37° C. for 5 min to induce gel formation. One hundred μL of DMEM medium was then added into each well. Fresh medium was changed 3 times within the first 30 min in order to neutralize the acidic pH of the hydrogels, and then changed every other day during culture. After various treatments described below and at the appropriate time points, a 1000 μL pipette tip was cut at its distal end to facilitate our ability to gently draw up 50 μL of encapsulated hAMSCs from the top of the well. Cells were then gently placed onto a slide to allow for examination under light field microscopy. This process was repeated 3 times per well, allowing for assessment of a total of 3 different depth layers (top, middle, and bottom) of the encapsulated cell mixture. This method of encapsulation can generally be used for encapsulating most cell-types in the scaffolds described herein. […]

hAMSCs [7] = assay: In vitro osteogenic differentiation of encapsulated hAMSCs (ALP, alizarin red S); assay type: cell-based, human; details: osteogenic differentiation medium, 14 days
From the text: as §1
Alkaline Phosphatase (ALP) staining was used to detect mineralization in hAMSCs during osteogenic differentiation. After culturing encapsulated hAMSCs for 14 days in the various hydrogels, the medium was aspirated and cells were stained with StemTag ALP (Cell Biolabs, San Diego, Calif.) according to the manufacturer's protocol. Briefly, after washing twice with PBS, cells were exposed to fixing solution for 2 min, then washed again with PBS and incubated with StemTAG ALP staining solution for 30 min in the dark. ALP staining solution was aspirated and cells were then washed with PBS and observed under light microscopy. […]

lost modulus G″ ([2]; 25° C.): ~6.2 Pa
storage modulus G′ ([2]; 25° C.): ~10.5 Pa
lost modulus G″ ([2]; 37° C.): 5 Pa
storage modulus G′ ([2]; 37° C.): 2 Pa
phase difference Delta ([2]; end of the increase (37° C.)): 70 degrees
phase difference Delta ([2]; start of the increase (25° C.)): 30 degrees
Substance: Ac-KFEFKFEF-NH2 [EFK8, AcN-KFEFKFEF-CONH2]
new fat (adipose) tissue / hAMSC engraftment and adipogenic differentiation (hAMSCs in nude mice): did not observe new adipose tissue
cell surface marker expression pattern (hAMSCs [1]): expressed CD73, CD90, and CD105 but were negative for CD14, CD19, CD34, CD45, and HLA class II
hAMSC proliferation (WST-1) (hAMSCs [3]): significantly increased hAMSC proliferation rates; also recorded: promote cell proliferation
Adipogenic Oil-Red-O (% +) Day 4 (hAMSCs [4]; adipogenic differentiation medium, 4 days): 42±6%
Adipogenic Oil-Red-O (% +) Day 7 (hAMSCs [4]; adipogenic differentiation medium, 7 days): 68±8%
differentiation of encapsulated hAMSCs on induction medium (in words) (hAMSCs [4]; adipogenic or osteogenic induction medium): differentiated into adipocytes or osteoblasts
viability [5]: > 80%
effectiveness as a hemostatic agent (in words) (bleeding hand): also effective as a hemostatic agent
Aggregation Day 3 (hAMSCs [6]; 3 days of culture): <3-5%
Aggregation Day 10 (hAMSCs [6]; 10 days of culture): ~10%
Osteogenic AP (% +) Day 14 (hAMSCs [7]): 88±9%
Osteogenic Alizarin Red (% +) Day 14 (hAMSCs [7]): 54±7%
